Experimental findings from patent US6355467B1, “Saccharification enzymes from hyperthermophilic bacteria and processes for their production” (Johns Hopkins University, priority 1989, dated 2002) are described below.

Broadly, the Km is the concentration of substrate that gives half-maximal velocity.

In experiment [1] the test system is P. furiosus α-glucosidase. Briefly: Substrate specificity (kinetic assays) of purified α-glucosidase. The format is biochemical, Pyrococcus furiosus. Conditions: substrate hydrolysed by purified α-glucosidase. How it is done: (§1) α-Glucosidase was assayed using p-nitrophenyl-α-D-glucopyranoside (PNP-α-G) as substrate, and β-glucosidase was assayed using p-nitrophenyl-β-D-glucopyranoside (PNP-β-G) as substrate. Assays were conducted as follows; for each assay, 1.0 ml of substrate consisting of 10 mM PNP-α-G or PNP-β-G in 0.1 M sodium phosphate buffer, pH 5.5, was pipetted into a quartz cuvette. The cuvettes were inserted into a heated cell holder and preincubated for 5 to 10 minutes at the assay temperature of 98° C. Following the preincubation, enzyme sample (10 μl) was added to the cuvette and the evolution of p-nitrophenol (PNP) was followed by monitoring A405.
Substrate specificity. The substrate specificity of the purified α-glucosidase was tested with a variety of natural and synthetic glucosides.

For another experiment, the system named is P. furiosus. Briefly: Effect of adding substrate to the culture medium on saccharification enzyme production. The format is cell-based, Pyrococcus furiosus. Conditions: substrate added to culture. How it is done:
Growth of cells. P. furiosus was grown in artificial sea water supplemented with 10 g/l elemental sulfur and carbohydrate substrate, typically 3 g/l of soluble starch, unless otherwise specified, as described in Example 1. For the present studies, typically one liter bottles were inoculated with 20 ml of a late log phase culture and incubated for 12 hours at 98° C. in a silicon oil bath. Sulfur was removed by filtration and the cell pellet was recovered by centrifugation at about 12,000×g for 30 minutes. Intracellular enzyme preparation. […] The sonicated cells were centrifuged at about 18,000×g for 30 minutes to remove remaining sulfur and cell debris. […] Extracellular enzyme preparation. For extracellular enzyme activities, supernatants from the original centrifugation (i.e., the culture media) were concentrated from 1 liter to about 5 ml using, in succession, a Millipore […] ultrafiltration unit with a 10,000 molecular-weight-cutoff membrane, and a Novacell stirred cell with a 10,000 molecular-weight-cutoff membrane. […] EPPS was used instead of phosphate to prevent precipitation of salts from the media. […] The amount of reducing sugar released was determined using the dinitrosalicylic acid method (Barnfeld, P., 1955, Methods in Enzymology 1:149-50). One unit of enzyme activity was defined as the amount of enzyme that released one nmol of reducing sugar (as a glucose standard) per minute under the assay conditions used. α-Glucosidase was assayed using p-nitrophenyl-α-D-glucopyranoside (PNP-α-G) as substrate, and β-glucosidase was assayed using p-nitrophenyl-β-D-glucopyranoside (PNP-β-G) as substrate. Assays were conducted as follows; for each assay, 1.0 ml of substrate consisting of 10 mM PNP-α-G or PNP-β-G in 0.1 M sodium phosphate buffer, pH 5.5, was pipetted into a quartz cuvette. […] Following the preincubation, enzyme sample (10 μl) was added to the cuvette and the evolution of p-nitrophenol (PNP) was followed by monitoring A405. One unit of glucosidase activity was that amount of enzyme releasing one μmol PNP per minute under the standard conditions, from the appropriate α or β substrate.

The subject of experiment [2] is purified P. furiosus α-glucosidase. Briefly: Effects of denaturing agents and inhibitors on purified α-glucosidase. The format is biochemical, Pyrococcus furiosus. The settings on record: standard assay at 98° C. How it is done: as §1, with “A405. One unit of glucosidase activity was that amount of enzyme releasing one μmol PNP per minute under the standard conditions, from the appropriate α or β substrate.” for “A405.”
Resistance to denaturing agents. […] Several denaturing agents were added to p-nitrophenyl-α-D-glucopyranoside, both in the presence and absence of the α-glucosidase, to control for possible degradation of the substrate in the presence of the agents.

Where only a bound is given, the exact number is not on record here.

Turning to `OC[C@H]1O[C@H](O[C@H]2[C@H](O)[C@@H](O)C(O)O[C@@H]2CO)[C@H](O)[C@@H](O)[C@@H]1O` (mixture of isomers) [Maltose], in experiment [1], the Km was 5200 µM and the Vm came to 1760 U/mg. In the experiment with P. furiosus (intracellular), the “best yield of pullulanase per liter of culture” value is on record as 8020 units. As for `O[C@H](CS)[C@H](O)CS` (racemic) [Dithiothreitol], in experiment [2] (agent at 100 mM), the “Activity Remaining” value was determined as 83%. Regarding `O=C(O)CN(CCN(CC(=O)O)CC(=O)O)CC(=O)O` [EDTA, Ethylenediaminetetraacetic acid], in experiment [2] (agent at 20 mM), the “Activity Remaining” value was 50%. Take `O=C(O)CN(CCOCCOCCN(CC(=O)O)CC(=O)O)CC(=O)O` [EGTA, [Ethylenebis(oxyethylenenitrilo)]tetraacetic acid]: in experiment [2] (agent at 20 μM), the “Activity Remaining” value was found to be 85%.

Regarding `Cl.N=C(N)N` [Guanidinium hydrochloride], the “Activity Remaining” value in experiment [2] (agent at 1.0 M) is reported as less than 1%.

In the case of `OC[C@H]1O[C@H](OC[C@H]2OC(O)[C@H](O)[C@@H](O)[C@@H]2O)[C@H](O)[C@@H](O)[C@@H]1O` (stereo partly drawn) [Isomaltose], in experiment [1], the Km is 8200 µM and the Vm is recorded as 951 U/mg. With `CO[C@H]1O[C@H](CO)[C@@H](O)[C@H](O)[C@H]1O` [Methyl-α-D-glucopyranoside], in experiment [1], the Km is 770 µM and the Vm turned out to be 186 U/mg. In the case of `CCCCCCCCCCCCOS(=O)(=O)[O-].[Na+]` [Sodium dodecyl sulphate], the “Activity Remaining” value in experiment [2] (agent at 1% (w/v), 30 minutes) turned out to be 22%. For `OC[C@H]1O[C@@](CO)(O[C@H]2O[C@H](CO)[C@@H](O)[C@H](O)[C@H]2O)[C@@H](O)[C@@H]1O` [Sucrose], the “activity relative to p-Nitrophenyl-α-D-glucopyranoside (symbols)” value in experiment [1] was “nd (No activity detected (<3% of p-Nitrophenyl-α-D-glucopyranoside))”.

As to `NC(N)=O` [Urea], the “Activity Remaining” value in experiment [2] (agent at 1.0 M) is on record as 84%.

For the compound `O=[N+]([O-])c1ccc(O[C@@H]2O[C@H](CO)[C@H](O)[C@H](O)[C@H]2O)cc1` [p-Nitrophenyl-α-D-glucopyranoside], in experiment [1], the Km is 260 µM and the Vm was 287 U/mg. As for `O=[N+]([O-])c1ccc(O[C@@H]2O[C@H](CO)[C@@H](O)[C@H](O)[C@H]2O)cc1` [p-Nitrophenyl-β-D-glucopyranoside], the “activity relative to p-Nitrophenyl-α-D-glucopyranoside (symbols)” value in experiment [1] is “t (Only a trace of activity could be detected (i.e., ˜3% of the level found with p-Nitrophenyl-α-D-glucopyranoside).)”. As for Starch, in experiment [1], the “activity relative to p-Nitrophenyl-α-D-glucopyranoside (symbols)” value was “nd (No activity detected (<3% of p-Nitrophenyl-α-D-glucopyranoside))”. The “best yield of β-glucosidase per liter of culture” value in the experiment with P. furiosus (intracellular) is given as 220 units.

For the compound glycogen, in the experiment on P. furiosus (enzyme in medium), the “best yield of amylase per liter of culture” value is recorded as 60,100 units. For the same compound, the “best yield of α-glucosidase per liter of culture” value in the experiment with P. furiosus (intracellular) stood at 9584.
